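Five concentrations, 48 hours, 96-well plates. TGI: concentration producing complete growth inhibition.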
Experiments:
Test in all cases: NCI-60 cell line screen, 48 h
[1] = tested on: SF-295 CNS
[2] = tested on: MDA-MB-231 breast
[3] = tested on: HCC-2998 colon
[4] = tested on: RPMI-8226 leukemia
[5] = tested on: SNB-75 CNS
[6] = tested on: SK-MEL-5 melanoma
[7] = tested on: BT-549 breast
[8] = tested on: HL-60(TB) leukemia
[9] = tested on: OVCAR-4 ovarian
[10] = tested on: SR leukemia
[11] = tested on: UACC-257 melanoma
[12] = tested on: SK-MEL-2 melanoma
[13] = tested on: SN12C renal
[14] = tested on: SK-MEL-28 melanoma
[15] = tested on: UACC-62 melanoma
[16] = tested on: CCRF-CEM leukemia
[17] = tested on: KM12 colon
[18] = tested on: TK-10 renal
[19] = tested on: MDA-MB-435

SMILES	TGI [1] [µM]	TGI [2] [µM]	TGI [3] [µM]	TGI [4] [µM]	TGI [5] [µM]	TGI [6] [µM]	TGI [7] [µM]	TGI [8] [µM]	TGI [9] [µM]	TGI [10] [µM]	TGI [11] [µM]	TGI [12] [µM]	TGI [13] [µM]	TGI [14] [µM]	TGI [15] [µM]	TGI [16] [µM]	TGI [17] [µM]	TGI [18] [µM]	TGI [19] [µM]
O=[N+]([O-])c1ccc(-c2csc3nc(-c4ccccc4)nn23)cc1	> 100	> 100	> 100	> 100	> 100	> 100	> 100	> 100	> 100	> 100	> 100	> 100	> 100	> 100	> 100	> 100	> 100	> 100	> 100
CCC1NC(=O)C1NC(=O)OC (stereo unspecified)	> 100	> 100	> 100	> 100	> 100	> 100	> 100	> 100	> 100	> 100	> 100	> 100	> 100	> 100	> 100	> 100	> 100	> 100	> 100
CS(=O)(=O)N1CC(CCl)c2ccc([N+](=O)[O-])cc21 (stereo unspecified)	> 100	> 100	> 100	> 100	–	> 100	> 100	> 100	> 100	> 100	> 100	> 100	> 100	> 100	> 100	> 100	> 100	> 100	> 100
O=C(CCC(NC(=O)OCc1ccccc1)C(=O)OCc1ccccc1)Nc1ccc(OCc2ccccc2)cc1 (stereo unspecified)	> 31.6	25.6	> 31.6	> 10	> 31.6	> 10	> 10	> 31.6	> 31.6	> 31.6	> 31.6	> 10	> 31.6	> 31.6	> 31.6	> 31.6	> 31.6	> 31.6	> 31.6
O=C1c2ccccc2S(=O)(=O)c2c1cccc2[N+](=O)[O-]	> 10	5.36	> 10	5.94	> 9.55	2.46	> 8.34	4.97	4.6	5.28	4.76	> 10	6.56	5.25	3.48	4.19	5.08	> 10	3.64
CC(=O)N1C(c2[nH]c3ccccc3c2-c2ccccc2)CCN1c1ccccc1 (stereo unspecified)	> 10	> 10	> 10	> 10	> 10	> 10	> 10	> 10	> 10	> 10	> 10	> 10	> 10	> 10	–	> 10	–	> 10	> 10
CC(=O)NC(CS/N=N/c1nc[nH]c1C(N)=O)C(=O)O (stereo unspecified)	> 100	> 27.8	> 27.9	> 31.6	> 100	> 100	> 100	> 23.7	> 100	0.0673	> 100	> 100	> 55.9	> 100	> 100	> 23.1	> 45.3	> 100	> 100
CC#CC#C/C=C1/O[C@]2(CCC(OC(C)=O)CO2)[C@@H]2O[C@H]12 (stereo partly specified)	> 100	44.2	33	75.2	> 100	–	50.4	48.7	> 100	> 100	74.9	40.5	51.9	–	36.8	55.3	47.1	> 100	81.5
COC(=O)C1=CC2CCCC1(O)C(C(C)=O)C2 (stereo unspecified)	> 100	> 100	> 100	69.6	> 31.6	> 100	> 100	47.8	> 100	> 81.5	> 100	> 100	> 100	> 100	> 100	> 68.3	> 100	> 100	> 100
O=c1c2nn3c(=O)n(-c4ccccc4)c(=O)c3nn2c(=O)n1-c1ccccc1	> 100	> 100	> 100	> 100	> 100	> 100	> 100	> 100	> 100	> 100	> 100	> 100	> 100	> 100	> 100	> 100	> 100	> 100	> 100
CC1CNc2ccccc2N=C1NN (stereo unspecified)	> 100	> 100	> 100	> 100	–	> 100	> 100	> 24.8	> 100	> 100	> 100	> 100	> 100	> 100	> 100	> 100	> 100	> 100	> 100
NC(=O)c1cc2cc(Cl)cc(Cl)c2oc1=Nc1ccc(F)cc1	39.3	35.6	48.9	61.7	30.3	31.7	37	> 100	70.6	24.8	42.8	31.6	38	46.3	63.7	> 100	> 100	30	44.2
O=C(C1OC1c1ccc(O)cc1)C12CC3CC(CC(C3)C1)C2 (stereo unspecified)	> 100	> 100	> 100	> 73	> 100	> 100	> 81.8	> 43.4	> 100	> 100	> 100	> 100	> 69.7	> 100	> 100	> 41.5	> 100	> 100	> 55

Reference: PubChem BioAssay (NCI)
